Test results taken from patent US10059713B2 (Takeda Pharmaceutical Company Limited, priority 2014, dated 2018).

molecular target: human GPR43 (Homo sapiens (Human), UniProt O15552); assay: Ca-Flux functional assay: determination of agonist/positive allosteric modulator (PAM) activity; format: cell-based; conditions: CHO-K1 Gα16 cells stably expressing human GPR43; compound added with EC20 sodium acetate; intracellular Ca2+ by FLIPR; does not distinguish agonist from PAM
Experimental: Ca-Flux Functional Assay: Determination of Agonist/Positive Allosteric Modulator (PAM) Activity
GPR43 agonist/PAM activity was determined by measuring changes in intracellular calcium levels using a Ca^2+ sensitive fluorescent dye. The changes in fluorescent signal were monitored by FLIPR (manufactured by Molecular Devices). GPR43 mediated increases in intracellular Ca^2+ concentration were readily detected upon activation with sodium acetate. Prior to the assay (24 hours), CHO-K1 Gα16 cells stably expressing human GPR43 were-seeded in cell culture medium in black, clear-bottom 384-well plates (Corning Inc) and grown overnight at 37° C., 5% CO2. On the day of the assay, cell culture media was removed and cells were loaded with Calcium 5 Dye (Molecular Devices) diluted in HBSS containing 25 mM HEPES, 2.5 mM Probenecid, 0.1% BSA for 1 hour at 37° C., 5% CO2. 10 point half log concentration response curves of sodium acetate from 10 mM were conducted prior to the testing of compounds to calculate the sodium acetate concentration that produces 20% of the maximal response (EC20). Test compounds (at 10 point half log concentration response curves from 10 μM) were added in the presence of sodium acetate to achieve a final concentration that produces approximately 20% maximal response as calculated from the previous experiment. The changes in fluorescent signal were monitored by FLIPR upon addition of the compound/EC20 sodium acetate mix. The EC50 values were determined from ten point concentration response curves. Curves were generated using the average of two wells for each data point.
The above assay detects both GPR43 receptor agonists and positive allosteric modulators of the GPR43 receptor, without distinguishing between the two. Activity in either regard is useful in the treatment of conditions associated with GPR43 receptor activity.

Sequence of human GPR43 (O15552 whole entry): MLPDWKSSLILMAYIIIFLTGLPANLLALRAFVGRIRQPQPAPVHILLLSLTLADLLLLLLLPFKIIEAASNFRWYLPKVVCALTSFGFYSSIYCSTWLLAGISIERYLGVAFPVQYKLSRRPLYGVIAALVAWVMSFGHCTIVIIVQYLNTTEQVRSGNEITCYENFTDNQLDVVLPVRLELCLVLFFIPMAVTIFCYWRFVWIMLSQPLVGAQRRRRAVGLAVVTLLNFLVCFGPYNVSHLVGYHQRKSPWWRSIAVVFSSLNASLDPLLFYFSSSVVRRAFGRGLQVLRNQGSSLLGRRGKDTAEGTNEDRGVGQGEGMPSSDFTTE

Row | SMILES | EC50 [nM]
1 | C=C(C)c1nc(C)nc2c(S(=O)(=O)c3ccccc3)c(N)[nH]c12 [Example 149, 7-(benzenesulfonyl)-2-methyl-4-(prop-1-en-2-yl)-5H-pyrrolo[3,2-d]pyrimidin-6-amine] | 252
2 | C=C(C)c1cncc2c(S(=O)(=O)c3ccccc3)c(N)[nH]c12 [Example 100, 3-(benzenesulfonyl)-7-(prop-1-en-2-yl)-1H-pyrrolo[3,2-c]pyridin-2-amine] | 145
3 | Nc1[nH]c2c(CCC3CC3)ncnc2c1S(=O)(=O)c1ccccc1 [Example 13, 7-(benzenesulfonyl)-4-(2-cyclopropylethyl)-5H-pyrrolo[3,2-d]pyrimidin-6-amine] | 267
4 | Cc1nc(N2CCOC(C)C2)c2[nH]c(N)c(S(=O)(=O)c3cccc(F)c3F)c2n1 (centres unmarked) [Example 182, 7-(2,3-difluorobenzenesulfonyl)-2-methyl-4-(2-methylmorpholin-4-yl)-5H-pyrrolo[3,2-d]pyrimidin-6-amine] | 6
5 | CC1CCCN(c2ncnc3c(S(=O)(=O)c4ccccc4)c(N)[nH]c23)C1 (centres unmarked) [Example 58, 7-(benzenesulfonyl)-4-(3-methylpiperidin-1-yl)-5H-pyrrolo[3,2-d]pyrimidin-6-amine] | 17
6 | CCC1CN(c2ncnc3c(S(=O)(=O)c4ccccc4)c(N)[nH]c23)CCO1 (centres unmarked) [Example 79, 7-(benzenesulfonyl)-4-(2-ethylmorpholin-4-yl)-5H-pyrrolo[3,2-d]pyrimidin-6-amine] | 40
7 | Cc1nc(N2CCOC(CF)C2)c2[nH]c(N)c(S(=O)(=O)c3ccccc3F)c2n1 (centres unmarked) [Example 266, 7-(2-fluorobenzenesulfonyl)-4-[2-(fluoromethyl)morpholin-4-yl]-2-methyl-5H-pyrrolo[3,2-d]pyrimidin-6-amine] | 3
8 | Nc1[nH]c2c(N3CCCC(F)(F)C3)ncnc2c1S(=O)(=O)c1ccccc1 [Example 34, 7-(benzenesulfonyl)-4-(3,3-difluoropiperidin-1-yl)-5H-pyrrolo[3,2-d]pyrimidin-6-amine] | 89
9 | CN(c1ncnc2c(S(=O)(=O)c3ccccc3)c(N)[nH]c12)C1CC1 [Example 98, 7-(benzenesulfonyl)-4-N-cyclopropyl-4-N-methyl-5H-pyrrolo[3,2-d]pyrimidine-4,6-diamine] | 648
10 | CC1CC(Oc2ncnc3c(S(=O)(=O)c4ccccc4)c(N)[nH]c23)CC(C)O1 (centres unmarked) [Example 210, 7-(benzenesulfonyl)-4-[(2,6-dimethyloxan-4-yl)oxy]-5H-pyrrolo[3,2-d]pyrimidin-6-amine] | 156
11 | Cc1nc(C2CCCC2)c2[nH]c(N)c(S(=O)(=O)c3cccc(F)c3)c2n1 [Example 209, 4-cyclopentyl-7-(3-fluorobenzenesulfonyl)-2-methyl-5H-pyrrolo[3,2-d]pyrimidin-6-amine] | 303
12 | Nc1[nH]c2c(C3=CCCCC3)ncnc2c1S(=O)(=O)c1ccc(F)c(F)c1 [Example 49, 4-(cyclohex-1-en-1-yl)-7-[(3,4-difluorobenzene)sulfonyl]-5H-pyrrolo[3,2-d]pyrimidin-6-amine] | 113
13 | Nc1[nH]c2c(-n3cccn3)ncnc2c1S(=O)(=O)c1ccccc1 [Example 128, 7-(benzenesulfonyl)-4-(1H-pyrazol-1-yl)-5H-pyrrolo[3,2-d]pyrimidin-6-amine] | 797

The remaining compounds from weak to strong by EC50, led by results:

Row | EC50 [nM] | SMILES
14 | 3070 | Nc1[nH]c2c(O[C@H]3CCOC3)ncnc2c1S(=O)(=O)c1ccccc1 [Example 158, 7-(benzenesulfonyl)-4-[(3S)-oxolan-3-yloxy]-5H-pyrrolo[3,2-d]pyrimidin-6-amine]
15 | 1150 | Nc1[nH]c2c(N3CCCOCC3)ncnc2c1S(=O)(=O)c1ccccc1 [Example 82, 7-(benzenesulfonyl)-4-(1,4-oxazepan-4-yl)-5H-pyrrolo[3,2-d]pyrimidin-6-amine]
16 | 209 | COc1ccccc1CN(C)c1ncnc2c(S(=O)(=O)c3ccccc3)c(N)[nH]c12 [Example 92, 7-(benzenesulfonyl)-4-N-[(2-methoxyphenyl)methyl]-4-N-methyl-5H-pyrrolo[3,2-d]pyrimidine-4,6-diamine]
17 | 173 | COc1ccc(S(=O)(=O)c2c(N)[nH]c3c(C4CCCCC4)ncnc23)cn1 [Example 44, 4-cyclohexyl-7-(6-methoxypyridine-3-sulfonyl)-5H-pyrrolo[3,2-d]pyrimidin-6-amine]
18 | 166 | Nc1[nH]c2c(C3CCCCC3)nc(C3CC3)nc2c1S(=O)(=O)c1ccccc1 [Example 131, 7-(benzenesulfonyl)-4-cyclohexyl-2-cyclopropyl-5H-pyrrolo[3,2-d]pyrimidin-6-amine]
19 | 67 | Cc1cccc(S(=O)(=O)c2c(N)[nH]c3c(N4CCOC(C)C4)ncnc23)c1 (centres unmarked) [Example 121, 7-(3-methylbenzenesulfonyl)-4-(2-methylmorpholin-4-yl)-5H-pyrrolo[3,2-d]pyrimidin-6-amine]
20 | 57 | CC1CCN(c2ncnc3c(S(=O)(=O)c4ccccc4)c(N)[nH]c23)CC1 [Example 59, 7-(benzenesulfonyl)-4-(4-methylpiperidin-1-yl)-5H-pyrrolo[3,2-d]pyrimidin-6-amine]
21 | 41 | CN(Cc1cccc(Cl)c1)c1ncnc2c(S(=O)(=O)c3ccccc3)c(N)[nH]c12 [Example 90, 7-(benzenesulfonyl)-4-N-[(3-chlorophenyl)methyl]-4-N-methyl-5H-pyrrolo[3,2-d]pyrimidine-4,6-diamine]
22 | 36 | Nc1[nH]c2c(C3=CCC(F)(F)CC3)ncnc2c1S(=O)(=O)c1ccccc1 [Example 127, 7-(benzenesulfonyl)-4-(4,4-difluorocyclohex-1-en-1-yl)-5H-pyrrolo[3,2-d]pyrimidin-6-amine]
23 | 31 | CC(C)CC1CN(c2ncnc3c(S(=O)(=O)c4ccccc4)c(N)[nH]c23)CCO1 (centres unmarked) [Example 101, 7-(benzenesulfonyl)-4-[2-(2-methylpropyl)morpholin-4-yl]-5H-pyrrolo[3,2-d]pyrimidin-6-amine]
24 | 31 | Cc1nc(OCC2CCC2)c2[nH]c(N)c(S(=O)(=O)c3ccccc3)c2n1 [Example 249, 7-(benzenesulfonyl)-4-(cyclobutylmethoxy)-2-methyl-5H-pyrrolo[3,2-d]pyrimidin-6-amine]
25 | 28 | Cc1nc(C2=CCCCC2)c2[nH]c(N)c(S(=O)(=O)c3ccccc3)c2n1 [Example 19, 7-(benzenesulfonyl)-4-(cyclohex-1-en-1-yl)-2-methyl-5H-pyrrolo[3,2-d]pyrimidin-6-amine]
26 | 18 | CSc1nc(N2CCOC(C)C2)c2[nH]c(N)c(S(=O)(=O)c3ccccc3)c2n1 (centres unmarked) [Example 238, 7-(benzenesulfonyl)-4-(2-methylmorpholin-4-yl)-2-(methylsulfanyl)-5H-pyrrolo[3,2-d]pyrimidin-6-amine]
27 | 14 | Cc1nc(N2CCC(F)(F)CC2)c2[nH]c(N)c(S(=O)(=O)c3ccccc3F)c2n1 [Example 186, 4-(4,4-difluoropiperidin-1-yl)-7-(2-fluorobenzenesulfonyl)-2-methyl-5H-pyrrolo[3,2-d]pyrimidin-6-amine]
28 | 3 | Cc1nc(N2CCO[C@@H](C(F)(F)F)C2)c2[nH]c(N)c(S(=O)(=O)c3cc(F)ccc3F)c2n1 [Example 291]
29 | 1 | Cc1nc(N2CCO[C@@H](CF)C2)c2[nH]c(N)c(S(=O)(=O)c3ccccc3F)c2n1 [Example 299, 7-(2-fluorobenzenesulfonyl)-4-[(2R)-2-(fluoromethyl)morpholin-4-yl]-2-methyl-5H-pyrrolo[3,2-d]pyrimidin-6-amine]
